Assay results from US20150105252A1, “SUBSTITUTED PYRAZOLES AS HERBICIDES” (E I DU PONT DE NEMOURS AND COMPANY, priority 2013, published 2015).

Key:
wheat = experiment: Test A preemergence; type: in vivo, Triticum aestivum; conditions: preemergence
Procedure, shortened: (§1)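 After sowing in a sand–loam mix, pots received compound preemergence by directed soil spray, or postemergence once plants reached the one- to two-leaf stage (2–10 cm). Formulation contained surfactant in a non-phytotoxic solvent. Injury was scored visually after ~10 greenhouse days, 0–100 scale.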

galium [1] = experiment: Test C preemergence; type: in vivo, Galium aparine; conditions: for Plant response rating (scale of 0 to 100), Galium: Preemergence, 250 g ai/ha
Procedure, shortened: (§2)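 In this greenhouse assay, seeded soil (loam plus sand) or emerged seedlings in peat-vermiculite medium were treated with formulated compound. Roughly two weeks later (13–15 days), each species was scored visually relative to controls, from 0 for no effect to 100 for complete control.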

corn [2] = experiment: Test A postemergence; type: in vivo, Zea mays
Procedure, shortened: as §1

corn [3] = experiment: Test C preemergence; type: in vivo, Zea mays; conditions: for Plant response rating (scale of 0 to 100), Corn: Preemergence, 250 g ai/ha
Procedure, shortened: as §2

crabgrass, large [4] = experiment: Test A preemergence; type: in vivo, Digitaria sanguinalis; conditions: preemergence
Procedure, shortened: as §1

galium [5] = experiment: Test C postemergence; type: in vivo, Galium aparine; conditions: for Plant response rating (scale of 0 to 100 where 0 is no effect and 100 is complete control), Galium: Postemergence, 31 g ai/ha, visually evaluated after 13 to 15 days; for Galium plant response rating / Plant response rating, Galium: postemergence; for Galium plant response rating: 62 g ai/ha, scale 0 to 100
Procedure, shortened: as §2

foxtail, giant [6] = experiment: Test C postemergence; type: in vivo, Setaria faberii; conditions: for Plant response rating (scale of 0 to 100 where 0 is no effect and 100 is complete control), Foxtail, Giant: Postemergence, 31 g ai/ha, visually evaluated after 13 to 15 days; for Foxtail, Giant plant response rating / Plant response rating, Foxtail, Giant: postemergence; for Foxtail, Giant plant response rating: 62 g ai/ha, scale 0 to 100
Procedure, shortened: as §2

blackgrass = experiment: Test C postemergence; type: in vivo, Alopecurus myosuroides; conditions: for Plant response rating (scale of 0 to 100 where 0 is no effect and 100 is complete control), Blackgrass: Postemergence, 31 g ai/ha, visually evaluated after 13 to 15 days; for Blackgrass plant response rating / Plant response rating, Blackgrass: postemergence; for Blackgrass plant response rating: 62 g ai/ha, scale 0 to 100
Procedure, shortened: as §2

foxtail, giant [7] = experiment: Test A postemergence; type: in vivo, Setaria faberii
Procedure, shortened: as §1

barnyardgrass = experiment: Test C postemergence; type: in vivo, Echinochloa crus-galli; conditions: for Plant response rating (scale of 0 to 100 where 0 is no effect and 100 is complete control), Barnyardgrass: Postemergence, 31 g ai/ha, visually evaluated after 13 to 15 days; for Barnyardgrass plant response rating / Plant response rating, Barnyardgrass: postemergence; for Barnyardgrass plant response rating: 62 g ai/ha, scale 0 to 100
Procedure, shortened: as §2

nutsedge, yellow = experiment: Test C preemergence; type: in vivo, Cyperus esculentus; conditions: for Plant response rating (scale of 0 to 100), Nutsedge, Yellow: Preemergence, 250 g ai/ha
Procedure, shortened: as §2

waterhemp = experiment: Test C preemergence; type: in vivo, Amaranthus rudis; conditions: for Plant response rating (scale of 0 to 100), Waterhemp: Preemergence, 250 g ai/ha
Procedure, shortened: as §2

morningglory [8] = experiment: Test A postemergence; type: in vivo, Ipomoea spp.
Procedure, shortened: as §1

crabgrass, large [9] = experiment: Test A postemergence; type: in vivo, Digitaria sanguinalis
Procedure, shortened: as §1

morningglory [10] = experiment: Test C postemergence; type: in vivo, Ipomoea coccinea; conditions: for Plant response rating (scale of 0 to 100 where 0 is no effect and 100 is complete control), Morningglory: Postemergence, 31 g ai/ha, visually evaluated after 13 to 15 days; for Morningglory plant response rating / Plant response rating, Morningglory: postemergence; for Morningglory plant response rating: 62 g ai/ha, scale 0 to 100
Procedure, shortened: as §2

ryegrass, Italian = experiment: Test C preemergence; type: in vivo, Lolium multiflorum; conditions: for Plant response rating (scale of 0 to 100), Ryegrass, Italian: Preemergence, 250 g ai/ha
Procedure, shortened: as §2

[11] = 125 g ai/ha, visual injury, 0 to 100 scale, approx. 10 days
[12] = 500 g ai/ha, visual injury after approx. 10 days, 0 to 100 scale (0 no effect, 100 complete control)
[13] = preemergence, 31 g ai/ha, visual rating, scale 0 to 100 (0 no effect, 100 complete control), 13 to 15 days
[14] = preemergence, 62 g ai/ha, scale 0 to 100 (0 no effect, 100 complete control), 13 to 15 days
[15] = preemergence, 125 g ai/ha, scale 0 to 100, 0 is no effect, 100 is complete control
[16] = Postemergence, 500 g ai/ha, visual rating after approx. 10 days, 0 to 100 scale (0 no effect, 100 complete control)
[17] = postemergence, 125 g ai/ha, about 10 days, visual rating on 0 to 100 scale (0 no effect, 100 complete control)
[18] = 250 g ai/ha, scale 0 to 100 (0 no effect, 100 complete control)
[19] = 125 g ai/ha, scale 0 to 100, 0 no effect, 100 complete control
[20] = preemergence, 125 g ai/ha, 13 to 15 days, scale 0 to 100, 0 = no effect, 100 = complete control
[21] = Postemergence, 500 g ai/ha, 0 to 100 scale (0 no effect, 100 complete control)

CCc1cc(C(=O)NCC(F)(F)F)nn1Cc1nc(C(F)(F)F)nn1C [Compound 107]
Wheat plant response rating (wheat; [11]): 10
Wheat plant response rating (wheat; [12]): 90
Plant response rating (scale of 0 to 100), Galium (galium [1]): 100
Galium plant response rating (galium [1]; [13]): 75
Galium plant response rating (galium [1]; [14]): 90
Galium plant response rating (galium [1]; [15]): 95
Corn plant response rating (corn [2]; [16]): 90
Corn plant response rating (corn [2]; [17]): 50
Plant response rating (scale of 0 to 100), Corn (corn [3]): 95
Corn plant response rating (corn [3]; [13]): 30
Corn plant response rating (corn [3]; [14]): 45
Corn plant response rating (corn [3]; [15]): 90
Crabgrass, Large plant response rating (crabgrass, large [4]; [11]): 100
Crabgrass, Large plant response rating (crabgrass, large [4]; [12]): 100
Plant response rating (scale of 0 to 100 where 0 is no effect and 100 is complete control), Galium (galium [5]): 50
Galium plant response rating (galium [5]): 85
Plant response rating, Galium (galium [5]; [18]): 90
Plant response rating, Galium (galium [5]; [19]): 90
Plant response rating (scale of 0 to 100 where 0 is no effect and 100 is complete control), Foxtail, Giant (foxtail, giant [6]): 10
Foxtail, Giant plant response rating (foxtail, giant [6]): 15
Plant response rating, Foxtail, Giant (foxtail, giant [6]; [18]): 60
Plant response rating, Foxtail, Giant (foxtail, giant [6]; [19]): 55
Plant response rating (scale of 0 to 100 where 0 is no effect and 100 is complete control), Blackgrass (blackgrass): 10
Blackgrass plant response rating (blackgrass): 10
Plant response rating, Blackgrass (blackgrass; [18]): 35
Plant response rating, Blackgrass (blackgrass; [19]): 15
Foxtail, Giant plant response rating (foxtail, giant [7]; [16]): 90
Foxtail, Giant plant response rating (foxtail, giant [7]; [17]): 70
Plant response rating (scale of 0 to 100 where 0 is no effect and 100 is complete control), Barnyardgrass (barnyardgrass): 0
Barnyardgrass plant response rating (barnyardgrass): 0
Plant response rating, Barnyardgrass (barnyardgrass; [18]): 30
Plant response rating, Barnyardgrass (barnyardgrass; [19]): 5
Plant response rating (scale of 0 to 100), Nutsedge, Yellow (nutsedge, yellow): 100
Nutsedge, Yellow plant response rating (nutsedge, yellow; [13]): 15
Nutsedge, Yellow plant response rating (nutsedge, yellow; [14]): 60
Nutsedge, Yellow plant response rating (nutsedge, yellow; [15]): 85
Plant response rating (scale of 0 to 100), Waterhemp (waterhemp): 100
Waterhemp plant response rating (waterhemp; [13]): 100
Waterhemp plant response rating (waterhemp; [14]): 100
Waterhemp plant response rating (waterhemp; [15]): 100
Morningglory plant response rating (morningglory [8]; [16]): 100
Morningglory plant response rating (morningglory [8]; [17]): 90
Crabgrass, Large plant response rating (crabgrass, large [9]; [16]): 90
Crabgrass, Large plant response rating (crabgrass, large [9]; [17]): 80
Plant response rating (scale of 0 to 100 where 0 is no effect and 100 is complete control), Morningglory (morningglory [10]): 75
Morningglory plant response rating (morningglory [10]): 80
Plant response rating, Morningglory (morningglory [10]; [18]): 80
Plant response rating, Morningglory (morningglory [10]; [19]): 80
Plant response rating (scale of 0 to 100), Ryegrass, Italian (ryegrass, Italian): 100
Ryegrass, Italian plant response rating (ryegrass, Italian; [13]): 10
Ryegrass, Italian plant response rating (ryegrass, Italian; [14]): 60
Ryegrass, Italian plant response rating (ryegrass, Italian; [15]): 60

CCONC(=O)c1cc(CC)n(Cc2ccnc(OC(F)F)c2)n1 [Compound 131]
Wheat plant response rating (wheat; [11]): 90
Wheat plant response rating (wheat; [12]): 100
Plant response rating (scale of 0 to 100), Galium (galium [1]): 98
Galium plant response rating (galium [1]; [13]): 55
Galium plant response rating (galium [1]; [14]): 75
Plant response rating, Galium (galium [1]; [20]): 75
Corn plant response rating (corn [2]; [21]): 100
Corn plant response rating (corn [2]; [17]): 80
Plant response rating (scale of 0 to 100), Corn (corn [3]): 98
Corn plant response rating (corn [3]; [13]): 40
Corn plant response rating (corn [3]; [14]): 90
Plant response rating, Corn (corn [3]; [20]): 95
Crabgrass, Large plant response rating (crabgrass, large [4]; [11]): 100
Crabgrass, Large plant response rating (crabgrass, large [4]; [12]): 100
Plant response rating (scale of 0 to 100 where 0 is no effect and 100 is complete control), Galium (galium [5]): 45
Galium plant response rating (galium [5]): 55
Plant response rating, Galium (galium [5]; [18]): 70
Plant response rating, Galium (galium [5]; [19]): 50
Plant response rating (scale of 0 to 100 where 0 is no effect and 100 is complete control), Foxtail, Giant (foxtail, giant [6]): 5
Foxtail, Giant plant response rating (foxtail, giant [6]): 10
Plant response rating, Foxtail, Giant (foxtail, giant [6]; [18]): 50
Plant response rating, Foxtail, Giant (foxtail, giant [6]; [19]): 40
Plant response rating (scale of 0 to 100 where 0 is no effect and 100 is complete control), Blackgrass (blackgrass): 5
Blackgrass plant response rating (blackgrass): 5
Plant response rating, Blackgrass (blackgrass; [18]): 20
Plant response rating, Blackgrass (blackgrass; [19]): 10
Foxtail, Giant plant response rating (foxtail, giant [7]; [21]): 90
Foxtail, Giant plant response rating (foxtail, giant [7]; [17]): 80
Plant response rating (scale of 0 to 100 where 0 is no effect and 100 is complete control), Barnyardgrass (barnyardgrass): 5
Barnyardgrass plant response rating (barnyardgrass): 5
Plant response rating, Barnyardgrass (barnyardgrass; [18]): 45
Plant response rating, Barnyardgrass (barnyardgrass; [19]): 10
Plant response rating (scale of 0 to 100), Nutsedge, Yellow (nutsedge, yellow): 90
Nutsedge, Yellow plant response rating (nutsedge, yellow; [13]): 45
Nutsedge, Yellow plant response rating (nutsedge, yellow; [14]): 50
Plant response rating, Nutsedge, Yellow (nutsedge, yellow; [20]): 95
Plant response rating (scale of 0 to 100), Waterhemp (waterhemp): 100
Waterhemp plant response rating (waterhemp; [13]): 100
Waterhemp plant response rating (waterhemp; [14]): 100
Plant response rating, Waterhemp (waterhemp; [20]): 100
Morningglory plant response rating (morningglory [8]; [21]): 100
Morningglory plant response rating (morningglory [8]; [17]): 90
Crabgrass, Large plant response rating (crabgrass, large [9]; [21]): 90
Crabgrass, Large plant response rating (crabgrass, large [9]; [17]): 70
Plant response rating (scale of 0 to 100 where 0 is no effect and 100 is complete control), Morningglory (morningglory [10]): 35
Morningglory plant response rating (morningglory [10]): 55
Plant response rating, Morningglory (morningglory [10]; [18]): 70
Plant response rating, Morningglory (morningglory [10]; [19]): 65
Plant response rating (scale of 0 to 100), Ryegrass, Italian (ryegrass, Italian): 95
Ryegrass, Italian plant response rating (ryegrass, Italian; [13]): 15
Ryegrass, Italian plant response rating (ryegrass, Italian; [14]): 55
Plant response rating, Ryegrass, Italian (ryegrass, Italian; [20]): 85
